Our source for the RP-LC retention time values is the METLIN SMRT retention time set (Domingo-Almenara et al. 2019).

The data set can be described thus: gradient 5% acetonitrile 3 min, to 50% in 2 min, to 85% in 15 min, held 3 min, 100 µL/min. The note with it: column: Zorbax Extend-C18 2.1 x 50 mm; eluents: water / acetonitrile, 0.1% formic acid. Summed up: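 Retention time was recorded from adduct peaks, which were picked computationally and each inspected manually. Pure standards ran in mixtures of ~100 molecules on HPLC coupled to a quadrupole time-of-flight mass spectrometer, in positive and negative ionization mode, through a Zorbax Extend-C18 column (2.1 × 50 mm, 1.8 μm) at 100 μL/min. Eluents were water and acetonitrile, each with 0.1% formic acid.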
Compound `O=C(Nc1ccc2c(c1)OCCO2)C1CCN(c2cc(N3CCCCC3)ncn2)CC1` registered an RP-LC retention time of 667 s.

`O=C(Nc1ccc(NC(=O)c2ccncc2)cc1)c1ccncc1` yielded an RP-LC retention time of 610 s.

`O=C(Cc1ccc(NC(=O)c2ccsc2)cc1)NCc1cccs1` returned an RP-LC retention time of 725 s.

`O=C(Nc1ccc(F)cc1F)C1CCCN(S(=O)(=O)Cc2ccccc2)C1` (stereo not drawn) came in with an RP-LC retention time of 933 s.

In turn, `Clc1ccc(-c2ccc(CNCc3ccc4c(c3)OCO4)o2)cc1` gave an RP-LC retention time of 762 s.

`COc1ccccc1CNC(=O)C1CCc2nc(N3CCCCC3)ncc2C1` (stereo not drawn) showed an RP-LC retention time of 755 s.

`COc1ccc(-c2cn3ccn(-c4cc(C)cc(C)c4)c(=O)c3n2)cc1OC` had an RP-LC retention time of 797 s.

`CCCc1cc(N2CCN(C(=O)c3ccc(C#N)cc3)CC2)nc2nnc(C)n12` displayed an RP-LC retention time of 610 s.

On to `CCCc1nc2ccc(CCC(=O)Nc3ccc(OC)c(OC)c3)cc2[nH]1`, for which the RP-LC retention time came out at 610 s.

`CCN1CCN(c2cc(C(=O)O)c3cc(NS(=O)(=O)c4cc(C)ccc4C)ccc3n2)CC1` returned an RP-LC retention time of 610 s.

Compound `Cc1c(Cl)cccc1NC(=O)N1CCCC1c1nncn1-c1ccccc1` (stereo not drawn) yielded an RP-LC retention time of 738 s.

As for `CCCCn1cc(S(=O)(=O)N2CCN(c3ccccc3)CC2)c2cccnc21`, the RP-LC retention time amounted to 1120 s.

As to `CN(C)C(=O)c1ccc(-c2nnc3ccc(NC(=O)C4CCC4)cn23)cc1`, the RP-LC retention time amounted to 664 s.

The compound `O=C1NCCCCCCN(C(=O)Nc2ccccc2)[C@H]2CCCC[C@@H]12` registered an RP-LC retention time of 805 s.

As for `O=C(CCNc1c(-c2ccccc2)nc2cnccn12)N1CCC(N2CCCCC2)CC1`, the RP-LC retention time worked out at 552 s.

With `Cc1ccc(N2CC(c3noc(-c4cc(F)cc(F)c4)n3)CC2=O)cc1` (stereo not drawn), the RP-LC retention time came to 1060 s.

`O=C(Nc1cccc(-c2cn3cccnc3n2)c1)c1ccccc1[N+](=O)[O-]` showed an RP-LC retention time of 637 s.

The compound `CC(C)N1C(=O)C(C)(C(=O)Nc2ccc(F)c(Cl)c2)Oc2cccnc21` (stereo not drawn) registered an RP-LC retention time of 1070 s.

Turning to `CCOC(=O)C1=C(CN2CCCC2)NC(=O)NC1c1ccc(OC)cc1` (stereo not drawn), the RP-LC retention time is 597 s.

In turn, `CC1=C(c2ccc(C(C)C)cc2)S(=O)(=O)N=C1N1CCCN(C(=O)c2ccoc2)CC1` yielded an RP-LC retention time of 911 s.

`Cc1nnc2cc(N3CCN(S(=O)(=O)c4cccs4)CC3)cnn12` returned an RP-LC retention time of 636 s.

On to `O=C(NCc1ccco1)N1CC2CN(S(=O)(=O)c3cccc(F)c3)CC(C1)O2`, for which the RP-LC retention time is 744 s.

As for `Cc1ccc(S(=O)(=O)Cc2noc(-c3ccc(Cl)cc3)n2)cc1`, the RP-LC retention time worked out at 1040 s.

Compound `O=S(=O)(NCC(O)c1ccc(C(F)(F)F)cc1)c1ccc2c(c1)OCCO2` (stereo not drawn) displayed an RP-LC retention time of 817 s.

On to `O=C1C(=O)N(Cc2ccc(C(=O)N3CCCCC3)cc2)CCN1Cc1ccc(F)cc1`, for which the RP-LC retention time stood at 735 s.

Compound `O=C(CCC1CCCC1)NCCc1noc(C2CC2)n1` displayed an RP-LC retention time of 807 s.

Compound `COc1ccc(CNC(=S)Nc2ccc3nc(N4CCN(C)CC4)cc(C)c3c2)c(OC)c1` gave an RP-LC retention time of 600 s.

`Cc1nc(N2CCCC2)c2c(C(=O)Nc3cccc(C)c3C)c(C)oc2n1` yielded an RP-LC retention time of 756 s.

As for `Cc1cccc2nnc(N3CCC(C(=O)NCC4CCCCC4)CC3)n12`, the RP-LC retention time amounted to 709 s.

In turn, `Cc1ccc(Cl)cc1NC(=O)N1CCC(n2cnc3c(C)cccc3c2=O)CC1` returned an RP-LC retention time of 911 s.

Compound `O=C(CN1C(=O)CCC1=O)NC1CCCC(OC(=O)Nc2ccc(F)cc2)C1` (stereo not drawn) displayed an RP-LC retention time of 674 s.

`CC1=NS(=O)(=O)N(C)C=C1C(=O)OCc1nc(-c2ccccc2C)no1` came in with an RP-LC retention time of 1000 s.

`COc1cc(NC(=O)Nc2ccc3nc(N4CCN(C)CC4)cc(C)c3c2)cc(OC)c1OC` had an RP-LC retention time of 574 s.

Compound `CCCn1cc(S(=O)(=O)Nc2cc(C)cc(C)c2)c2cccnc21` returned an RP-LC retention time of 946 s.

`CCOC(=O)c1nc(N2CCN(c3ccc(C)cc3C)CC2)c2ccccc2n1` showed an RP-LC retention time of 1110 s.

As for `CCCS(=O)(=O)N1CCCC(C)(C(=O)NCc2ccc(OC)cc2)C1` (stereo not drawn), the RP-LC retention time was found to be 798 s.

Consider `O=C(c1ccccc1Br)N1CCc2nc(-c3ccccc3)ncc2C1`, for which the RP-LC retention time is 963 s.

For `Cc1noc(-c2ccc(NC(=O)c3cccs3)cc2)n1`, the RP-LC retention time is 776 s.

`CCN(CC)C(=O)c1ccc2c(c1)nnn2CCNC(=O)NC(C)(C)C` returned an RP-LC retention time of 658 s.

The compound `CCOc1ccc(C(=O)N2CCN(c3cc(-c4ccc(Cl)cc4)[nH]n3)CC2)cc1OCC` had an RP-LC retention time of 916 s.

`Cc1cc(C)cc(NC(=O)C2(C)Oc3cccnc3NC2=O)c1` (stereo not drawn) displayed an RP-LC retention time of 702 s.

Compound `O=C(NC1CCCC1)C1CC(=O)N(c2ccc3c(c2)CCN3C(=O)C2CC2)C1` (stereo not drawn) displayed an RP-LC retention time of 704 s.

`O=C(NCCN1CCN(C(=O)c2cccs2)CC1)c1ccc2nsnc2c1` displayed an RP-LC retention time of 550 s.

Turning to `Cc1cccc(Oc2nccnc2N2CCC(C(=O)NC(C)c3ccc(C)cc3C)CC2)c1` (stereo not drawn), the RP-LC retention time worked out at 1150 s.

Turning to `COc1cccc(CNC(=O)C2(C)CCCN(C(=O)Nc3ccc(F)c(Cl)c3)C2)c1` (stereo not drawn), the RP-LC retention time worked out at 959 s.

`COc1ccccc1NC(=O)N1CCC(CNC(=O)c2ccc(Br)o2)CC1` showed an RP-LC retention time of 744 s.

Compound `Cc1ccc(-c2nnc(-c3nn(C)c4c3CN(S(=O)(=O)c3ccc(C(C)(C)C)cc3)CC4)o2)cc1` yielded an RP-LC retention time of 1210 s.

`Cc1ccc(NC(=O)N2CCCC(Cn3c(C4CC4)nc4cccnc43)C2)cc1` (stereo not drawn) registered an RP-LC retention time of 685 s.

In turn, `Cc1ccsc1C(=O)N1[C@H]2CC[C@@H]1c1cnc(-c3ccccc3)nc1C2` gave an RP-LC retention time of 982 s.

In turn, `O=C(COc1ccc(Cl)cc1)Nc1nc(-c2ccc(Cl)cc2)cs1` had an RP-LC retention time of 1190 s.

Regarding `Cc1ccccc1NC(=O)c1nc2ccccc2[nH]c1=O`, the RP-LC retention time is 735 s.

As to `CN(C)c1ncccc1C(=O)Nc1ccc(F)cc1`, the RP-LC retention time was 610 s.

`COc1ccc2cc(C(=O)N3CCC(CC(=O)NCC4CCCO4)CC3)[nH]c2c1` (stereo not drawn) came in with an RP-LC retention time of 681 s.

With `CCOC(=O)c1ccc(NC(=O)N2CCN(CC)c3ncccc32)cc1`, the RP-LC retention time is 640 s.

`O=C(c1ccc(OCC2CCCN(C(=O)c3ccoc3)C2)cc1)N1CCOCC1` (stereo not drawn) had an RP-LC retention time of 690 s.

In turn, `CCOC(=O)c1c(C)oc2ncnc(NCCN3CCN(c4ccc(OC)cc4)CC3)c12` came in with an RP-LC retention time of 716 s.

Compound `CCc1nnc2ccc(NC(=O)Nc3ccc(C)cc3)cn12` had an RP-LC retention time of 710 s.

In the case of `CCC(C(=O)Nc1ccc(OC)c(OC)c1)n1cnc2nc3c(cc2c1=O)CCCC3` (stereo not drawn), the RP-LC retention time stood at 720 s.

The compound `CCOc1ccc(NS(=O)(=O)c2cc(C(=O)N3CCN(c4cccc(C)c4)C(C)C3)n[nH]2)cc1` (stereo not drawn) yielded an RP-LC retention time of 899 s.

Compound `CSc1ccc(Cl)c(C(=O)Nc2cccn3c(C)nnc23)c1` had an RP-LC retention time of 759 s.

The compound `COC(=O)Cn1c(C)cc(=O)n2nc(-c3ccccc3Cl)nc12` showed an RP-LC retention time of 729 s.

For `Cc1ccc(S(=O)(=O)N2C(=O)CCC2C(=O)NCc2nc(-c3ccc(Cl)cc3)no2)cc1` (stereo not drawn), the RP-LC retention time was 951 s.

As for `COc1ccc(C)cc1NC(=O)N1C[C@@H]2C[C@H](NS(C)(=O)=O)[C@H]1C2`, the RP-LC retention time worked out at 717 s.

The compound `CCC(C(=O)NCCN1CCOCC1)n1c2ccccc2c2cnn(C)c(=O)c21` (stereo not drawn) yielded an RP-LC retention time of 617 s.

Consider `Cc1ccc(N2CCN(C(=O)c3nnc(-c4ccc(S(=O)(=O)N5CCCC5)cc4)o3)CC2)c(C)c1`, for which the RP-LC retention time was determined as 1190 s.

`Cc1cc(C)nc(Nc2nc3ccccc3[nH]2)n1` returned an RP-LC retention time of 615 s.

As to `CC1=C(CO)C(=O)O[C@@H]([C@@H](C)[C@H]2CCC3[C@@H]4C[C@H]5O[C@]56[C@@H](O)C=CC(=O)[C@]6(C)C4CC[C@@]32C)C1` (stereo partly drawn), the RP-LC retention time is 759 s.

For the compound `Cc1cc(C)nc(Nc2nc(C(=O)N3CCN(C(=O)c4ccco4)CC3)cs2)n1`, the RP-LC retention time came out at 665 s.

`CCOc1cccc(-c2noc(-c3nn(-c4ccccc4)ccc3=O)n2)c1` yielded an RP-LC retention time of 942 s.

On to `Cc1ccc(CN2CCCn3nc(C(=O)NCc4ccco4)cc3C2=O)cc1`, for which the RP-LC retention time was 804 s.

Take `COc1ccc(NC(=O)C2CC(=O)N(c3cccc(NC(C)=O)c3)C2)cc1Cl` (stereo not drawn): the RP-LC retention time is 709 s.

As to `O=C(CCS(=O)(=O)c1ccc(Cl)cc1)Nc1nnc(Cc2ccc3c(c2)OCO3)o1`, the RP-LC retention time was found to be 726 s.

Take `CC1(C)[C@H]2CC[C@](C)(C2)[C@H]1NS(=O)(=O)c1ccc(F)cc1`: the RP-LC retention time is 1140 s.

Turning to `COc1ccc(NC(=O)Cn2ccc3ccn(Cc4ccccc4)c3c2=O)cc1OC`, the RP-LC retention time came to 859 s.

With `Cc1ccc(N2C(=O)C3N=NN(Cc4nc(-c5cccc(C(F)(F)F)c5)no4)C3C2=O)cc1Cl` (stereo not drawn), the RP-LC retention time was 1180 s.

As for `CCS(=O)(=O)c1ccc2c(c1)N(Cc1nc(-c3cccc(Br)c3)no1)C(=O)CO2`, the RP-LC retention time was 988 s.

In turn, `Clc1cccc(-c2cc3c(N4CCN(Cc5ccc6c(c5)OCO6)CC4)nccn3n2)c1` had an RP-LC retention time of 820 s.

`COc1ccc(-c2nc(NCCC(C)C)c3ccccc3n2)cc1` returned an RP-LC retention time of 844 s.
